# Key:
# SHBG = assay: Phase I repeated dose study 101-50202: serum SHBG; type: in vivo, human;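 as to Serum SHBG, Mean: SHBG concentrations in nmol/L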
# Source text: Fispemifene has been studied in two phase I studies in humans—in a single dose and a repeated dose study. Effect of fispemifene on hormone levels was one main focus of the repeated dose study. The phase I repeated dose study (number 101-50202) was a randomized, double-blind, placebo-controlled 28-day dose-escalation study performed in 31 healthy, elderly men, aged 50-68 years. The main objective of the study was to investigate the tolerability, safety and pharmacokinetics of fispemifene after repeated oral doses, but the study focused also on the effects of fispemifene on serum free and total testosterone, estradiol, and other relevant hormones. The fispemifene doses 10, 30, 100 and 300 mg per day and placebo were administered once every morning as capsules containing 10 mg or 100 mg of fispemifene, or placebo.
# The variables for safety and tolerability were adverse events, vital signs, 12-lead ECG, clinical laboratory evaluations, physical examination, ultrasound examinations (mammary glands) and inhibin B. For pharmacokinetics, the concentrations of fispemifene and its metabolite(s) were to be evaluated. For pharmacodynamics, serum concentrations of FSH, LH, estradiol, testosterone, SHBG, prolactin, aldosterone, cortisol and TSH before and during treatment were measured and compared with the concentrations in the placebo-group.
# [1] = system: DHT (dihydrotestosterone); assay: Example 3 study in hypogonadal men: serum dihydrotestosterone (ITT); type: in vivo, human; conditions: for Dihydrotestosterone, Max / Dihydrotestosterone, Mean ± SD / Dihydrotestosterone, Median / Dihydrotestosterone, Min: Baseline (Visit 2);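 as to Dihydrotestosterone, Max: serum DHT concentration in pg/mL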;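 as to Dihydrotestosterone, Mean ± SD: serum DHT concentration in pg/mL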;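 as to Dihydrotestosterone, Median: serum DHT concentration in pg/mL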;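 as to Dihydrotestosterone, Min: serum DHT concentration in pg/mL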
# Method: A randomized, double-blind, placebo controlled, parallel-group study of once-daily doses of fispemifene (100, 200, and 300 mg/day) given for 4 weeks was conducted in a population of hypogonadal men. Subjects were required to meet all of the following inclusion criteria at screening and prior to randomization to be eligible for the study:
# There were 77 subjects total. The number of subjects randomized to the 100 mg fispemifene, 200 mg fispemifene, 300 mg fispemifene, and placebo arms were 21, 21, 19, and 16, respectively.
# Subjects were randomly assigned to one of four treatment groups in a 1:1:1:1 ratio: • Treatment A (100 mg): fispemifene 100 mg+placebo+placebo; • Treatment B (200 mg): fispemifene 100 mg+fispemifene 100 mg+placebo; • Treatment C (300 mg): fispemifene 100 mg+fispemifene 100 mg+fispemifene 100 mg; and • Treatment D (Placebo): placebo+placebo+placebo.
# Subjects took one dose (three capsules) of study medication once a day at home for 4 weeks. Capsules were to be taken in the morning immediately after breakfast, with the exception of the morning of the Week 4 visit. Capsules were not to be taken on the morning of the Week 4 visit because trough plasma levels of fispemifene were determined by a blood sample taken at this visit. Each subject was randomly assigned to treatment with one of the 3 different dose regimens of fispemifene or placebo vehicle. Each subject received a 4 week supply of study drug.
# Blood samples were taken from the subjects within 1 week prior to dosing with study drug to establish baseline values; after 2 and 4 weeks of randomization; and 2 weeks after the last dose of study drug. Serum was prepared from those samples and used to determine the mean % change from baseline in total testosterone, free testosterone, SHBG (sex hormone-binding globulin), DHT (dihydrotestosterone), E2 (estradiol), LH (luteinizing hormone), FSH (follicle stimulating hormone), and inhibin B.
# 3. Percent change from baseline in SHBG, DHT, E2, LH, FSH, inhibin B, and testosterone/E2 ratio at Weeks 2, 4, and 6.
# [2] = 100 mg/day, to Week 6 (2 weeks after discontinuation)
# [3] = 200 mg/day, to Week 6 (2 weeks after discontinuation)
structure (smiles),measurement,setting,value
"OCCOCCOc1ccc(/C(=C(/CCCl)c2ccccc2)c2ccccc2)cc1 [Fispemifene, (Z)-2-{2-[4-(4-Chloro-1,2-diphenylbut-1-enyl)phenoxy]ethoxy}ethanol]","Serum SHBG, Mean","SHBG; 10 mg/day, Baseline",47.7 nmol/L
same,"Serum SHBG, Mean","SHBG; 10 mg/day, Day 8",46.3 nmol/L
same,"Serum SHBG, Mean","SHBG; 10 mg/day, Day 15",48.2 nmol/L
same,"Serum SHBG, Mean","SHBG; 10 mg/day, Day 22",50.2 nmol/L
same,"Serum SHBG, Mean","SHBG; 10 mg/day, Day 28",45.2 nmol/L
same,"Serum SHBG, Mean","SHBG; 30 mg/day, Baseline",34.2 nmol/L
same,"Serum SHBG, Mean","SHBG; 30 mg/day, Day 8",34.2 nmol/L
same,"Serum SHBG, Mean","SHBG; 30 mg/day, Day 15",37.4 nmol/L
same,"Serum SHBG, Mean","SHBG; 30 mg/day, Day 22",37.2 nmol/L
same,"Serum SHBG, Mean","SHBG; 30 mg/day, Day 28",36.6 nmol/L
same,"Serum SHBG, Mean","SHBG; 100 mg/day, Baseline",41.7 nmol/L
same,"Serum SHBG, Mean","SHBG; 100 mg/day, Day 8",47.7 nmol/L
same,"Serum SHBG, Mean","SHBG; 100 mg/day, Day 15",52.0 nmol/L
same,"Serum SHBG, Mean","SHBG; 100 mg/day, Day 22",55.7 nmol/L
same,"Serum SHBG, Mean","SHBG; 100 mg/day, Day 28",50.8 nmol/L
same,"Serum SHBG, Mean","SHBG; 300 mg/day, Baseline",50.7 nmol/L
same,"Serum SHBG, Mean","SHBG; 300 mg/day, Day 8",64.2 nmol/L
same,"Serum SHBG, Mean","SHBG; 300 mg/day, Day 15",66.2 nmol/L
same,"Serum SHBG, Mean","SHBG; 300 mg/day, Day 22",65.2 nmol/L
same,"Serum SHBG, Mean","SHBG; 300 mg/day, Day 28",58.3 nmol/L
same,effect on serum concentration of SHBG,SHBG; during the 28 days of treatment,increased
same,"Dihydrotestosterone, Max",[1]; 100 mg/day,385.0 pg/mL
same,"Dihydrotestosterone, Mean ± SD",[1]; 100 mg/day,177.5 ± 88.58 pg/mL
same,"Dihydrotestosterone, Median",[1]; 100 mg/day,180.0 pg/mL
same,"Dihydrotestosterone, Min",[1]; 100 mg/day,50.0 pg/mL
same,"Dihydrotestosterone, % Change from Baseline, Max","[1]; 100 mg/day, to Week 2",109%
same,"Dihydrotestosterone, % Change from Baseline, Median","[1]; 100 mg/day, to Week 2",42%
same,"Dihydrotestosterone, % Change from Baseline, Min","[1]; 100 mg/day, to Week 2",0%
same,"Dihydrotestosterone, % Change from Baseline, Max","[1]; 100 mg/day, to Week 4",98%
same,"Dihydrotestosterone, % Change from Baseline, Median","[1]; 100 mg/day, to Week 4",33%
same,"Dihydrotestosterone, % Change from Baseline, Max",[1]; [2],64%
same,"Dihydrotestosterone, % Change from Baseline, Median",[1]; [2],19%
same,"Dihydrotestosterone, Max",[1]; 200 mg/day,398.0 pg/mL
same,"Dihydrotestosterone, Mean ± SD",[1]; 200 mg/day,185.2 ± 95.37 pg/mL
same,"Dihydrotestosterone, Median",[1]; 200 mg/day,168.0 pg/mL
same,"Dihydrotestosterone, Min",[1]; 200 mg/day,67.0 pg/mL
same,"Dihydrotestosterone, % Change from Baseline, Max","[1]; 200 mg/day, to Week 2",128%
same,"Dihydrotestosterone, % Change from Baseline, Median","[1]; 200 mg/day, to Week 2",50%
same,"Dihydrotestosterone, % Change from Baseline, Max","[1]; 200 mg/day, to Week 4",162%
same,"Dihydrotestosterone, % Change from Baseline, Median","[1]; 200 mg/day, to Week 4",61%
same,"Dihydrotestosterone, % Change from Baseline, Max",[1]; [3],78%
same,"Dihydrotestosterone, % Change from Baseline, Median",[1]; [3],11%
same,"Dihydrotestosterone, Max",[1]; 300 mg/day,294.0 pg/mL
same,"Dihydrotestosterone, Mean ± SD",[1]; 300 mg/day,171.6 ± 76.42 pg/mL
same,"Dihydrotestosterone, Median",[1]; 300 mg/day,179.0 pg/mL
same,"Dihydrotestosterone, Min",[1]; 300 mg/day,50.0 pg/mL
same,"Dihydrotestosterone, % Change from Baseline, Max","[1]; 300 mg/day, to Week 2",162%
same,"Dihydrotestosterone, % Change from Baseline, Median","[1]; 300 mg/day, to Week 2",65%
same,"Dihydrotestosterone, % Change from Baseline, Min","[1]; 300 mg/day, to Week 2",0%
same,"Dihydrotestosterone, % Change from Baseline, Max","[1]; 300 mg/day, to Week 4",163%
same,"Dihydrotestosterone, % Change from Baseline, Median","[1]; 300 mg/day, to Week 4",73%

# Source: patent US10500166B2, “Methods for the treatment of erectile dysfunction using fispemifene” (QUATRX PHARMACEUTICALS, priority 2007, dated 2019)
